Data reported in PMC7811009, “Oxytocin modulates local topography of human functional connectome in healthy men at rest” (Communications Biology, 2021).

Assays:
Assay type in all cases: in vivo
[1] = test system: human functional connectome at rest; test: Resting-state BOLD-fMRI, graph theory: nodal local efficiency (mesoscale); same doses, time and cohort; settings: post-hoc paired t-tests, FDR
Experimental: (§1) Each experimental session began with the treatment administration protocol that lasted about 22 min in total (Fig. 8, lower panel). After drug administration, participants were guided to the MRI scanner, where eight pulsed continuous arterial spin labelling scans (each lasting approx. eight minutes) were acquired, spanning 15–104 min post-dosing (data reported elsewhere[11]). The 8-min resting state BOLD-fMRI scan reported herein was obtained at about 57 ± 3.38 min post-dosing. Participants were instructed to lie still and maintain their gaze on a centrally placed fixation cross during scanning. We assessed participants’ levels of alertness (anchors: alert-drowsy) and excitement (anchors: excited-calm) using visual analogue scales (0–100) at three different time-points during the scanning session to evaluate subjective drug effects across time (data reported elsewhere[11]).
(§2) We used the CONN functional connectivity toolbox[97] to generate brain-wide functional connectivity matrices for each subject/session. […] The default atlas of the CONN toolbox includes 132 non-overlapping ROIs spanning cortical and subcortical areas and the cerebellum using a combination of the cortical and subcortical areas from the FSL Harvard-Oxford atlas and of the cerebellar areas of the Automatic Anatomical Labelling atlas (Supplementary data 1 for a detailed description). […] Finally, we normalized our correlation measures to z-scores using the Fisher’s r-z transform per subject/session.
We then used our z-transformed connectivity matrices to construct brain graphs representing a functional connectivity network for each subject/session. We used an undirected signed weighted approach in which we kept information about the sign and weight of each of the connections between the nodes (ROIs) of our network, without making assumptions about the direction of this relationship. […]
(§3) For each of the graph metrics analysed, we summarized the different values over the range of thresholds using the area under the curve (AUC), instead of applying multiple testing for each metric/threshold. […]

[2] = test system: human functional connectome at rest; test: Resting-state BOLD-fMRI: mean brain-wide functional connectivity (macroscale); settings: repeated measures one-way ANOVA, F(2.271, 34.070) = 0.774, p = 0.484
Experimental: as §1
MRI data were acquired on a 3 T MR750 system (GE Healthcare, Waukesha, Wisconsin) with a 32-channel head coil. Functional data was acquired using a shot multi-echo echo planar imaging (EPI) sequence (TR = 2500 ms, TE’s = 12, 28, 44 and 60 ms, FA = 80°, FOV = 240 × 240 mm^2, Matrix = 64 × 64, Slice thickness = 3 mm, 32 continuous descending axial slices, resolution = 3.75 × 3.75 × 3 mm). […] The resting state fMRI scan lasted 8 min 10 s, with collection of a total of 192 volumes for each echo. […]

[3] = test system: human functional connectome at rest; test: Resting-state BOLD-fMRI, graph theory: nodal betweenness-centrality (mesoscale); 40 IU intranasal (spray/nebuliser) or 10 IU intravenous, about 57 min post-dosing, 16 healthy men; settings: post-hoc paired t-tests, FDR
Experimental: as §1, §2
We then used our z-transformed connectivity matrices to construct brain graphs representing a functional connectivity network for each subject/session. We used an undirected signed weighted approach in which we kept information about the sign and weight of each of the connections between the nodes (ROIs) of our network, without making assumptions about the direction of this relationship. These connectivity matrices represent fully connected networks, where each node corresponds to each of the ROIs we used to build the functional connectivity matrices and each edge represents the z-transformed value of functional connectivity between a pair of nodes. […] We used the fully weighted networks to calculate equi-sparse networks by retaining a fixed percentage (K) of the total amount of possible edges. In order to determine systematic pharmacological effects on the network’s topological organization that are not dependent on the choice of an arbitrary threshold, we chose a range of sparsity thresholds from 5 to 34%, with steps of 1%, based on previous evidence showing the characteristic small-world behaviour of human brain networks is most consistently observed for this range[30]. For each network and sparsity level, we used the MATLAB functions provided with the Brain Connectivity Toolbox[16] to compute four global and regional network metrics: global efficiency, node degree, local efficiency and betweenness-centrality. Details on the calculation of each of these metrics have been described elsewhere. The combination of these four metrics allows us to test for treatment effects on connectivity at both global and regional levels, taking into account complementary aspects of functional integration of information exchange within the brain network. […]
as §3

## CC[C@H](C)[C@@H]1NC(=O)[C@H](Cc2ccc(O)cc2)NC(=O)[C@@H](N)CSSC[C@@H](C(=O)N2CCC[C@H]2C(=O)N[C@@H](CC(C)C)C(=O)NCC(N)=O)NC(=O)[C@H](CC(N)=O)NC(=O)[C@H](CCC(N)=O)NC1=O [oxytocin]
[1]; intravenous, 10 IU
  Nodes with increased local efficiency compared to placebo: increased the local efficiency of the right superior frontal gyrus, right frontal pole, anterior cingulate, left cuneal cortex, right posterior supramarginal gyrus and the brainstem
[1]; nebuliser, 40 IU intranasal
  Nodes with increased local efficiency compared to placebo: increased the local efficiency of the right cuneal cortex and the left posterior supramarginal gyrus
[1]; spray, 40 IU intranasal
  Nodes with increased local efficiency compared to placebo: increased the local efficiency of the right superior frontal gyrus, right anterior and posterior medial temporal gyri, right posterior superior temporal gyrus, right cuneal cortex and left cerebellum (area 1)
[2]
  Differences in mean functional connectivity across the four treatment conditions: no significant differences
[3]; intravenous, 10 IU
  Nodes with decreased betweenness-centrality compared to placebo: decreased the betweenness-centrality of the right amygdala and the anterior parahipoccampal gyrus
  Nodes with increased betweenness-centrality compared to placebo: increased the betweenness-centrality of the right and left occipital poles, left postcentral gyrus, right supramarginal gyrus and left and right cerebellum (areas 4–5 and area 10, respectively)
[3]; nebuliser, 40 IU intranasal
  Nodes with increased betweenness-centrality compared to placebo: increased the betweenness-centrality of the temporo-occipital area of the left middle temporal gyrus and the left cerebellum (area 7)
[3]; spray, 40 IU intranasal
  Nodes with decreased betweenness-centrality compared to placebo: decreased the betweenness-centrality of the precuneus, right posterior supramarginal and middle temporal gyri, the left anterior middle temporal gyrus and the right cerebellum (area 9)
  Nodes with increased betweenness-centrality compared to placebo: increased the betweenness-centrality of the right orbitofrontal cortex, left lateral occipital cortex, right temporal occipital fusiform cortex and left occipital pole
